Measured values published in US20130143891A1, “Methods for Treating Methotrexate-Resistant Disorders with 10-Propargyl-10-Deazaaminopterin” (ALLOS THERAPEUTICS, INC., priority 2010, published 2013).
Entries after “also recorded” stand apart in the source; their conditions may differ. Where two headings read alike, the source gives them in different places.

Experiments:
Format in all cases: cell-based, human
[1] = tested on: HT29 colon cancer cell line; assay: MTT cell cytotoxicity assay, HT29; conditions: 72 h exposure, read-out: Cytotoxicity (IC50s)
Experimental: (§1) A panel of colon (HT29, HCT116, COLO205, HCC2998), breast (MCF7, MDA-MB-435), lung (HOP62, HOP92), ovarian (OVCAR3, IGROV1), prostate (DU145, PC3), and head and neck (SCC61, HEP2, SQ20B) human cancer cell lines was purchased from the ATCC (Rockville, Md.) and National Cancer Institute collections. […] All the data generated was the result of three separate experiments performed in duplicate. Cell viability was determined using the MTT assay, which was carried out as described previously (Hansen, 1989). Briefly, cells were seeded in 96-well plates at a density of 2×10^3 cells well^−1. […] The monolayer was suspended in 0.1 ml of DMSO and the absorbance at 560 nm was measured using a microplate reader. Positive and negative controls included wells with untreated cells or medium containing MTT with no cells, respectively. The conversion of yellow water-soluble tetrazolium MTT into purple insoluble formazan is catalyzed by mitochondrial dehydrogenases and is used to estimate the number of viable cells.

[2] = tested on: OVCAR3 ovarian cancer cell line; assay: MTT cell cytotoxicity assay, OVCAR3; conditions: 72 h exposure, read-out: Cytotoxicity (IC50s)
Experimental: as §1

[3] = tested on: HOP92 NSCLC cell line; assay: MTT cell cytotoxicity assay, HOP92; conditions: 72 h exposure, read-out: Cytotoxicity (IC50s)
Experimental: as §1

[4] = tested on: DU145 prostate cancer cell line; assay: MTT cell cytotoxicity assay, DU145; conditions: naïve/parental, 72 h exposure, read-out: Cytotoxicity (IC50s)
Experimental: as §1

[5] = tested on: SCC61 head and neck cancer cell line; assay: MTT cell cytotoxicity assay, SCC61; conditions: 72 h exposure, read-out: Cytotoxicity (IC50s)
Experimental: as §1

[6] = tested on: IGROV1 ovarian cancer cell line; assay: MTT cell cytotoxicity assay, IGROV1; conditions: 72 h exposure, read-out: Cytotoxicity (IC50s)
Experimental: as §1

[7] = tested on: HCC2998 colon cancer cell line; assay: MTT cell cytotoxicity assay, HCC2998; conditions: 72 h exposure, read-out: Cytotoxicity (IC50s)
Experimental: as §1

[8] = tested on: MDA-MB-435 melanoma cell line; assay: MTT cell cytotoxicity assay, MDA-MB-435; conditions: MDA-MB-435 (melanoma; MDA435 in table), 72 h exposure, read-out: Cytotoxicity (IC50s)
Experimental: as §1

[9] = tested on: COLO205 colon cancer cell line; assay: MTT cell cytotoxicity assay, COLO205; conditions: 72 h exposure, read-out: Cytotoxicity (IC50s)
Experimental: as §1

[10] = tested on: HEP2 head and neck cancer cell line; assay: MTT cell cytotoxicity assay, HEP2; conditions: 72 h exposure, read-out: Cytotoxicity (IC50s)
Experimental: as §1

[11] = tested on: HOP62 NSCLC cell line; assay: MTT cell cytotoxicity assay, HOP62; conditions: 72 h exposure, read-out: Cytotoxicity (IC50s)
Experimental: as §1

[12] = tested on: MCF7 breast cancer cell line; assay: MTT cell cytotoxicity assay, MCF7; conditions: 72 h exposure, read-out: Cytotoxicity (IC50s)
Experimental: as §1

[13] = tested on: PC3 prostate cancer cell line; assay: MTT cell cytotoxicity assay, PC3; conditions: 72 h exposure, read-out: Cytotoxicity (IC50s)
Experimental: as §1

[14] = tested on: HCT116 colon cancer cell line; assay: MTT cell cytotoxicity assay, HCT116; conditions: 72 h exposure, read-out: Cytotoxicity (IC50s)
Experimental: as §1

[15] = tested on: SQ20B head and neck cancer cell line; assay: MTT cell cytotoxicity assay, SQ20B; conditions: 72 h exposure, read-out: Cytotoxicity (IC50s)
Experimental: as §1

[16] = tested on: DU-PDX cells; assay: Cytotoxicity in 10-propargyl-10-deazaminopterin-adapted DU145 cells; conditions: DU-PDX cells; 72 h exposure for pemetrexed and 5-FU
Experimental: (§2) All the data generated was the result of three separate experiments performed in duplicate. Cell viability was determined using the MTT assay, which was carried out as described previously (Hansen, 1989). Briefly, cells were seeded in 96-well plates at a density of 2×10^3 cells well^−1. Cells were incubated for 120 hours and then 0.4 mg ml^−1 of MTT dye (3-[4,5-dimethylthiazol-2-yl]-2,5-diphenyltetrazolium bromide was added for 4 hours at 37° C. The monolayer was suspended in 0.1 ml of DMSO and the absorbance at 560 nm was measured using a microplate reader. Positive and negative controls included wells with untreated cells or medium containing MTT with no cells, respectively. The conversion of yellow water-soluble tetrazolium MTT into purple insoluble formazan is catalyzed by mitochondrial dehydrogenases and is used to estimate the number of viable cells. The control value corresponding to untreated cells was taken as 100% and the viability of treated samples was expressed as a percentage of the control. IC50 values were determined as concentrations that reduced cell viability by 50%.
(§3) For single agent studies, cells were seeded and allowed to settle for 24 hours prior to treatment with increasing concentrations of 10-propargyl-10-deazaminopterin for 72 h. After incubation, the cells were allowed to recover in compound-free medium for 48 h, prior to determination of growth inhibition using the MTT assay.
(§4) To characterize the predictive factors of 10-propargyl-10-deazaminopterin antiproliferative effects, the cell lines DU-PDX and HEP-PDX were developed from parental DU145 and HEP2 cells, respectively, by exposure to stepwise increasing concentrations of 10-propargyl-10-deazaminopterin over a period of 6 months.

[17] = tested on: HEP-PDX cells; assay: Cytotoxicity in 10-propargyl-10-deazaminopterin-adapted HEP2 cells; conditions: HEP-PDX cells; 72 h exposure for pemetrexed and 5-FU
Experimental: as §2, §3, §4

[18] = tested on: DU-MTX cells; assay: Cytotoxicity in methotrexate-adapted DU145 cells
Experimental: as §2, §3
To compare the mechanisms of 10-propargyl-10-deazaminopterin and methotrexate resistance, the cell lines DU-MTX and HEP-MTX were developed from parental DU145 and HEP2 cells by exposure to stepwise increasing concentrations of methotrexate.

[19] = tested on: HEP-MTX cells; assay: Cytotoxicity in methotrexate-adapted HEP2 cells; conditions: methotrexate-adapted HEP2 compared with parental cells
Experimental: as §2
For single agent studies, cells were seeded and allowed to settle for 24 hours prior to treatment with increasing concentrations of 10-propargyl-10-deazaminopterin for 72 h. […]

SMILES: C[C@H]1O[C@@H](n2cc(F)c(=O)[nH]c2=O)[C@H](O)[C@@H]1O [5′-DFUR]
- IC50 [1]: 16 µM
- IC50 [2]: 230 µM
- IC50 [3]: 135 µM
- IC50 [4]: 28 µM
- IC50 [5]: 3.2 µM
- IC50 [6]: 29 µM
- IC50 [7]: 34 µM
- IC50 [8]: 33 µM
- IC50 [9]: 3.9 µM
- IC50 [10]: 250 µM
- IC50 [11]: 380 µM
- IC50 [12]: 7.8 µM
- IC50 [13]: 25 µM
- IC50 [14]: 45 µM
- IC50 [15]: 27 µM

SMILES: CN(Cc1cnc2nc(N)nc(N)c2n1)c1ccc(C(=O)N[C@@H](CCC(=O)O)C(=O)O)cc1 [Methotrexate]
- cross-resistance: cytotoxicity in DU-PDX compared with parental DU145 [16]: partial cross-resistance; also recorded: insensitive
- IC50 ([1]; Homo sapiens, HT-29, 72 h): 0.22 µM
- cross-resistance: cytotoxicity in HEP-PDX compared with parental HEP2 [17]: partial cross-resistance
- IC50 ([2]; Homo sapiens, OVCAR-3, 72 h): > 350 µM
- IC50 ([3]; Homo sapiens, HOP-92, 72 h): 0.6 µM
- IC50 ([4]; Homo sapiens, DU-145, 72 h): 0.3 µM
- IC50 ([5]; Homo sapiens, 72 h): 0.03 µM
- increase in IC50 in methotrexate adapted DU-145 cells ([18]; DU-MTX versus naïve DU-145): approximately 10 fold
- sensitivity of DU-MTX cells (in words) ([18]; methotrexate-adapted DU145 compared with parental/naïve cells): displayed resistance
- IC50 ([6]; Homo sapiens, IGROV-1, 72 h): 0.33 µM
- IC50 ([7]; Homo sapiens, HCC 2998, 72 h): > 350 µM
- IC50 ([8]; Homo sapiens, MDA-MB-435, 72 h): > 350 µM
- IC50 ([9]; Homo sapiens, COLO 205, 72 h): 30 µM
- sensitivity of HEP-MTX cells (in words) [19]: displayed resistance
- IC50 ([10]; Homo sapiens, HEp-2, 72 h): 0.25 µM
- IC50 ([11]; Homo sapiens, HOP-62, 72 h): 0.15 µM
- IC50 ([12]; Homo sapiens, MCF7, 72 h): 300 µM
- IC50 ([13]; Homo sapiens, 72 h): 0.1 µM
- IC50 ([14]; Homo sapiens, HCT-116, 72 h): > 350 µM
- IC50 ([15]; Homo sapiens, SQ20B, 72 h): 0.26 µM
